Measured values as given in ChEMBL document CHEMBL1131389, “Unusual synthesis of new glycine antagonists via sequential aldol condensation-lactonization-elimination reaction” (Bioorg Med Chem Lett, 1998).

Target: Glutamate receptor ionotropic, NMDA 1 (Rattus norvegicus) (UniProt P35439)
Experiment: In vitro affinity of compound for the glycinergic site associated with NMDA receptor was assessed by inhibition of the binding of [3H]glycine

| pKi | Compound |
| --- | --- |
| 7.3 | O=C(O)c1[nH]c2cc(Cl)cc(Cl)c2c1/C=C1\CCCN(c2ccccc2)C1=O |
| 7.5 | O=C(O)c1[nH]c2cc(Cl)cc(Cl)c2c1/C=C1\CCN(c2ccccc2)C1=O |
